We go through ten molecules from patent US7238701B2, “Substituted tetrahydrobenzothienopyrimidinamine compounds useful for treating hyper-proliferative disorders” (Bayer Pharmaceuticals Corporation, priority 2003, dated 2007).

Bounds are passed on as bounds.

Test [1] relates to A431cells (human epidermoid carcinoma). Nature of the test: In vitro tumor cell proliferation assay (Cell Titer-Glo luminescent cell viability), A431 cells. Conditions: A-431, 72 h, 72 hours drug exposure, 10% Fetal Bovine Serum, ATP luminescence readout, read-out: IC50 (50% inhibition of cell proliferation). The class given is cell-based. In short, it runs like this: (§1)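 ATP luminescence (CellTiter-Glo) measured proliferation after 72 h compound exposure at 37 °C, giving IC50 values. Serial dilutions spanning 64 pM–100 μM in 0.1% DMSO were applied one day after plating 2.5×10^3 cells/well in RPMI plus 10% fetal bovine serum.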
On the technique in general: Cellular ATP, detected with luciferase, serves as a proxy for viable cell number.

The subject of test [2] is BT474 (human breast carcinoma). The test is described as follows: In vitro tumor cell proliferation assay (Cell Titer-Glo luminescent cell viability), BT474 cells. Conditions: BT-474, 72 hours drug exposure, 10% Fetal Bovine Serum, ATP luminescence readout, read-out: IC50 (50% inhibition of cell proliferation). Type of test: cell-based. In short, it runs like this: as §1

With `COCCNCCC1CCc2c(sc3ncnc(Nc4ccc5c(cnn5Cc5ccccc5)c4)c23)C1` (centres unmarked) [Example 205, N-(1-benzyl-1H-indazol-5-yl)-7-{2-[(2-methoxyethyl)amino]ethyl}-5,6,7,8-tetrahydro[1]benzothieno[2,3-d]pyrimidin-4-amine], the IC50 in test [1] and in test [2] was less than 5 µM throughout.

Consider `OCCNCCC1CCc2c(sc3ncnc(Nc4ccc5c(cnn5Cc5ccccc5)c4)c23)C1` (centres unmarked) [Example 206, 2-[(2-{4-[(1-benzyl-1H-indazol-5-yl)amino]-5,6,7,8-tetrahydro[1]benzothieno[2,3-d]pyrimidin-7-yl}ethyl)amino]ethanol], for which the IC50 in test [1] and in test [2] was less than 5 µM in each case.

`CN(C)C1CCN(CCC2CCc3c(sc4ncnc(Nc5ccc6c(cnn6Cc6ccccc6)c5)c34)C2)C1` (centres unmarked) [Example 207, N-(1-benzyl-1H-indazol-5-yl)-7-{2-[3-(dimethylamino)pyrrolidin-1-yl]ethyl}-5,6,7,8-tetrahydro[1]benzothieno[2,3-d]pyrimidin-4-amine]: the IC50 in test [1] and in test [2] was less than 5 µM throughout.

Consider `c1ccc(Cn2ncc3cc(Nc4ncnc5sc6c(c45)CCC(CCN4CCCC4)C6)ccc32)cc1` (centres unmarked) [Example 208, N-(1-benzyl-1H-indazol-5-yl)-7-(2-pyrrolidin-1-ylethyl)-5,6,7,8-tetrahydro[1]benzothieno[2,3-d]pyrimidin-4-amine], for which the IC50 in test [1] and in test [2] was less than 5 µM each time.

Turning to `c1ccc(Cn2ncc3cc(Nc4ncnc5sc6c(c45)CCC(CCNCCN4CCOCC4)C6)ccc32)cc1` (centres unmarked) [Example 209, N-(1-benzyl-1H-indazol-5-yl)-7-{2-[(2-morpholin-4-ylethyl)amino]ethyl}-5,6,7,8-tetrahydro[1]benzothieno[2,3-d]pyrimidin-4-amine], the IC50 in test [1] and in test [2] was less than 5 µM throughout.

Regarding `CS(=O)(=O)CCNCCC1CCc2c(sc3ncnc(Nc4ccc5c(cnn5Cc5ccccc5)c4)c23)C1` (centres unmarked) [Example 210, N-(1-benzyl-1H-indazol-5-yl)-7-(2-{[2-(methylsulfonyl)ethyl]amino}ethyl)-5,6,7,8-tetrahydro[1]benzothieno[2,3-d]pyrimidin-4-amine], the IC50 in test [1] and in test [2] was less than 5 µM throughout.

Regarding `c1ccc(Cn2ncc3cc(Nc4ncnc5sc6c(c45)CCC(CCNCCN4CCCC4)C6)ccc32)cc1` (centres unmarked) [Example 211, N-(1-benzyl-1H-indazol-5-yl)-7-{2-[(2-pyrrolidin-1-ylethyl)amino]ethyl}-5,6,7,8-tetrahydro[1]benzothieno[2,3-d]pyrimidin-4-amine], the IC50 in test [1] and in test [2] was less than 5 µM in each case.

As to `CN(C)CCCCNCCC1CCc2c(sc3ncnc(Nc4ccc5c(cnn5Cc5ccccc5)c4)c23)C1` (centres unmarked) [Example 212, N′-(2-{4-[(1-benzyl-1H-indazol-5-yl)amino]-5,6,7,8-tetrahydro[1]benzothieno[2,3-d]pyrimidin-7-yl}ethyl)-N,N-dimethylbutane-1,4-diamine], the IC50 in test [1] and in test [2] was less than 5 µM in each case.

For `CCOC(=O)CC1CCc2c(sc3ncnc(Nc4ccc(Oc5ccc(C)nc5)c(C)c4)c23)C1` (centres unmarked) [Example 213, ethyl [4-({3-methyl-4-[(6-methylpyridin-3-yl)oxy]phenyl}amino)-5,6,7,8-tetrahydro[1]benzothieno[2,3-d]pyrimidin-7-yl]acetate], the IC50 in test [1] and in test [2] was less than 50 µM each time.

Take `Cc1ccc(Oc2ccc(Nc3ncnc4sc5c(c34)CCC(CCO)C5)cc2C)cn1` (centres unmarked) [Example 214, 2-{4-[3-Methyl-4-(6-methyl-pyridin-3-yloxy)-phenylamino]-5,6,7,8-tetrahydro-benzo[4,5]thieno[2,3-d]pyrimidin-7-yl}-ethanol]: the IC50 in test [1] is less than 50 µM; in test [2], less than 5 µM.
